{
  "source": "paper PMC10079954",
  "about": "“Rational design of phase separating peptides based on phase separating protein sequence of p53” (Scientific Reports, 2023)",
  "key": {"[1]": {"tested_on": "p53 tetramer", "assay": "Recruitment (enrichment index) of p53 tetramer into designed peptide droplets", "design": "species or system human", "details": "(GGGS)3-linker versus GSGS-linker droplets; no salt, pH 7.0", "text": "(§1) We prepared p53 tetramer, dimer, and monomer mutants, as described previously[8],[37],[50]. For the p53 tetramer, a thermostable and cysteine-modified human p53 mutant (C124A, C135V, C141V, W146Y, C182S, V203A, R209P, C229Y, H233Y, Y234F, N235K, Y236F, T253V, N268D, C275A, C277A, and K292C) was used[50]. The dimer and monomer mutants of p53 corresponded to L344A and L344P of the tetramer sequence, respectively[8],[37]. These p53 mutants were expressed with a glutathione S-transferase (GST) tag in E. coli and purified after cleavage of the GST tag, as described previously[50],[51]. The oligomeric state of p53 mutants was confirmed using a gel filtration column (Superdex 200; GE Healthcare). p53 mutants were labeled with Atto488 (ATTO-TEC) or Alexa488 (Thermo Fisher) using maleimide chemistry and then purified using a heparin column (GE Healthcare). We prepared Alexa488-labeled FUS-MBP as described previously[37],[39].\nRecruitment evaluations were performed following the method described in our previous studies[37],[41]. Solutions containing 0.9–1.8 mM designed peptides, 0.1 µM Alexa488-labeled p53 mutants or Alexa488, 25 mM HEPES, 0.5 mM EDTA, and 1 mM DTT at pH 7.0 were used. The solutions were then incubated at 22 °C for five minutes. The aforementioned microscope was used with HILO illumination. To prevent photo-bleaching of the fluorescent samples, we used a laser power of 0.15 mW. The images were acquired at 22 °C. Using the ImageJ software, we calculated the EI values of the individual droplets as follows:2 EI=Idroplet/Isolution, where Idroplet and Isolution represent the average fluorescence intensities of the individual droplets and solutions near the droplets with background substitution, respectively."}, "[2]": {"assay": "Single-molecule fluorescence tracking (HILO) of labeled molecules in their droplets", "type": "physicochemical", "details": "Alexa488-labeled peptide 10–100 pM in 0.9 mM non-labeled peptide droplets; 25 mM HEPES, 0.5 mM EDTA, 45 mM NaCl, 150 mg/mL dextran, pH 7.0; linear fit of MSD (4D slope)", "procedure": "We quantitatively characterized the liquid droplet properties of the four designed peptides and compared them with those of p53. We measured the fusion of the designed peptide droplets in the solution used for p53 droplets (Supplementary Fig. S4). In the presence of 45 mM NaCl and 150 mg/mL dextran, the fusion of droplets for the four designed peptides was observed within 0.2 s, which was much faster than that for p53 (3.7 min)[8]. This gap in the fusion period implies different intrinsic dynamic properties. We measured the movement of Alexa488-labeled peptides within non-labeled peptide droplets using single-molecule fluorescence microscopy with a highly inclined and laminated optical sheet (HILO) illumination[37],[41] (Fig. 3A). […]\nSingle-molecule measurements were performed following the method described in our previous studies[37],[41]. An inverted fluorescence microscope (IX-73; Olympus) with a total internal reflection fluorescence unit (IX3RFAEVAW; Olympus) was used[52],[53]. […] The fluorescence collected via the objective lens was detected using an EM-CCD camera (iXon Ultra 888, Andor). […] Images were recorded at intervals of 15–154 ms after reducing the number of observable molecules in the droplets by photobleaching within one minute. […]"}, "[3]": {"tested_on": "p53 dimer (L344A) mutant", "assay": "Recruitment (enrichment index) of p53 dimer into designed peptide droplets", "design": "species or system human", "details": "(GGGS)3-linker versus GSGS-linker droplets; no salt, pH 7.0", "text": "as §1\nRecruitment evaluations were performed following the method described in our previous studies[37],[41]. […] Using the ImageJ software, we calculated the EI values of the individual droplets as follows:2 EI=Idroplet/Isolution, where Idroplet and Isolution represent the average fluorescence intensities of the individual droplets and solutions near the droplets with background substitution, respectively."}},
  "data": [
    {"sequence": "RRRVVQRRRRGGGSGGGSGGGSDDDASQEDDD [DPp53N-(GGGS)3-DPp53C1]", "values": [
      {"measurement": "Increase of average EI of p53 tetramer compared to the GSGS-linker peptide", "setting": "[1]", "value": 1.8, "unit": "fold"},
      {"measurement": "Average diffusion coefficient (D) in own droplets", "setting": "[2]", "value": "2.03 ± 0.06", "unit": "μm^2/s"},
      {"measurement": "Increase of average EI of p53 dimer mutant compared to the GSGS-linker peptide", "setting": "[3]", "value": 1.5, "unit": "fold"}
    ]}
  ]
}
